Test results: US4156724A, “N-acylamino-alpha-arylacetamido cephalosporins and antibacterial compositions and methods containing them” (Sumitomo Chemical Company, Limited, priority 1974, dated 1979)
In brackets after ≈: the same amount, converted by molar mass.

What was measured:
Type in all cases: cell-based
[1] = test system: Enterobacter aerogeneus No. 75; assay: Minimum Inhibitory Concentration, Enterobacter aerogeneus No. 75; conditions: Enterobacter aerogeneus No. 75; for MIC: read-out: Minimum Inhibitory Concentration
Experimental: (§1) anti-microbial activity tests were carried out on the compounds obtained in the Examples.

Escherichia coli NIHJ = assay: Minimum Inhibitory Concentration, Escherichia coli NIHJ; conditions: Escherichia coli NIHJ; for MIC: read-out: Minimum Inhibitory Concentration
Experimental: as §1

[2] = test system: Staphylococcus aureus 209 P; assay: Minimum Inhibitory Concentration, Staphylococcus aureus 209 P; conditions: Staphylococcus aureus 209 P; for MIC: read-out: Minimum Inhibitory Concentration
Experimental: as §1

[3] = test system: Klebsiella pneumoniae 602; assay: Minimum Inhibitory Concentration, Klebsiella pneumoniae 602; conditions: for MIC: Klebsiella pneumoniae, 602, Klebsiella pneumoniae 602, read-out: Minimum Inhibitory Concentration
Experimental: as §1

[4] = test system: Staphylococcus aureus FS 289; assay: Minimum Inhibitory Concentration, Staphylococcus aureus FS 289; conditions: Staphylococcus aureus FS 289, strain resistant to penicillin; for MIC: FS289, read-out: Minimum Inhibitory Concentration
Experimental: as §1
*Staphylococcus aureus FS 289: strain resistant to penicillin

[5] = test system: Pseudomonas aeruginosa 104; assay: Minimum Inhibitory Concentration, Pseudomonas aeruginosa 104; conditions: Pseudomonas aeruginosa 104; for MIC: read-out: Minimum Inhibitory Concentration
Experimental: as §1

Serratia No. 72 = assay: Minimum Inhibitory Concentration, Serratia No. 72
Experimental: as §1

Proteus vulgaris HX 19 = assay: Minimum Inhibitory Concentration, Proteus vulgaris HX 19; conditions: Proteus vulgaris HX 19; for MIC: HX19, read-out: Minimum Inhibitory Concentration
Experimental: as §1

| SMILES | MIC [1] [µg/mL] | MIC (Escherichia coli NIHJ) [µg/mL] | MIC [2] [µg/mL] | MIC [3] [µg/mL] | MIC [4] [µg/mL] | MIC [5] [µg/mL] | MIC (Serratia No. 72) [µg/mL] | MIC (Proteus vulgaris HX 19) [µg/mL] | Minimum Inhibitory Concentration [1] [µg/mL] | Minimum Inhibitory Concentration (Escherichia coli NIHJ) [µg/mL] | Minimum Inhibitory Concentration [2] [µg/mL] | Minimum Inhibitory Concentration ([3]; Klebsiella pneumoniae 602) [µg/mL] | Minimum Inhibitory Concentration [4] [µg/mL] | Minimum Inhibitory Concentration [5] [µg/mL] | Minimum Inhibitory Concentration (Serratia No. 72) [µg/mL] | Minimum Inhibitory Concentration (Proteus vulgaris HX 19) [µg/mL] |
| --- | --- | --- | --- | --- | --- | --- | --- | --- | --- | --- | --- | --- | --- | --- | --- | --- |
| Nc1cccc(C(NC(=O)c2cnc3cccnc3c2O)C(=O)NC2C(=O)N3C(C(=O)O)=C(CSc4cnn[nH]4)CSC23)c1 (stereo not drawn) [Example 54] | 3.13 (≈ 4.94 µM) | 1.56 (≈ 2.46 µM) | 0.78 (≈ 1.23 µM) | 3.13 (≈ 4.94 µM) | 6.25 (≈ 9.86 µM) | 3.13 (≈ 4.94 µM) | 12.5 (≈ 19.7 µM) | 0.1 (≈ 0.158 µM) |  |  |  |  |  |  |  |  |
| O=C(O)C1=C(CSc2cnn[nH]2)CSC2C(NC(=O)C(NC(=O)c3cnc4cccnc4c3O)c3ccc(CO)cc3)C(=O)N12 (stereo not drawn) [Example 98] | 6.25 (≈ 9.63 µM) | 1.56 (≈ 2.4 µM) | 1.56 (≈ 2.4 µM) | 1.56 (≈ 2.4 µM) | 6.25 (≈ 9.63 µM) | 6.25 (≈ 9.63 µM) | 25 (≈ 38.5 µM) | 0.2 (≈ 0.308 µM) |  |  |  |  |  |  |  |  |
| CC(=O)OCC1=C(C(=O)[O-])N2C(=O)C(NC(=O)C(NC(=O)c3cnc4cccnc4c3O)c3ccc(O)c(F)c3)C2SC1.[Na+] (stereo not drawn) [Example 145] |  |  |  |  |  |  |  |  | 12.5 | 3.13 | 0.78 | 3.13 | 6.25 | 6.25 | 100 | 0.39 |
| Cc1nc2ncc(C(=O)NC(C(=O)NC3C(=O)N4C(C(=O)O)=C(CSc5nnnn5C)CSC34)c3cccc(NC(N)=O)c3)c(O)c2nc1C (stereo not drawn) [Example 42] | 6.25 (≈ 8.67 µM) | 3.13 (≈ 4.34 µM) | 1.56 (≈ 2.16 µM) | 3.13 (≈ 4.34 µM) | 6.25 (≈ 8.67 µM) | 6.25 (≈ 8.67 µM) | 12.5 (≈ 17.3 µM) | 0.2 (≈ 0.277 µM) |  |  |  |  |  |  |  |  |
| CSc1ncc2c(O)c(C(=O)NC(C(=O)NC3C(=O)N4C(C(=O)O)=C(CSc5nnnn5C)CSC34)c3ccc(CO)cc3)cnc2n1 (stereo not drawn) [Example 109] | 12.5 (≈ 17.6 µM) | 6.25 (≈ 8.79 µM) | 1.56 (≈ 2.19 µM) | 6.25 (≈ 8.79 µM) | 12.5 (≈ 17.6 µM) | 12.5 (≈ 17.6 µM) | 50 (≈ 70.3 µM) | 0.78 (≈ 1.1 µM) |  |  |  |  |  |  |  |  |
| Cc1nnc(SCC2=C(C(=O)O)N3C(=O)[C@@H](NC(=O)[C@H](NC(=O)c4cnc5cccnc5c4O)c4ccc(NC(N)=O)cc4)[C@H]3SC2)s1 [Example 20] | 3.13 (≈ 4.42 µM) | 3.13 (≈ 4.42 µM) | 0.78 (≈ 1.1 µM) | 1.56 (≈ 2.2 µM) | 3.13 (≈ 4.42 µM) | 3.13 (≈ 4.42 µM) | 12.5 (≈ 17.7 µM) | 0.1 (≈ 0.141 µM) |  |  |  |  |  |  |  |  |
| CC(=O)OCC1=C(C(=O)O)N2C(=O)C(NC(=O)[C@H](NC(=O)c3cnc4cccnc4c3O)c3ccc(N)cc3)C2SC1 (stereo partly drawn) [Example 50, 7-[D-α-(4-Hydroxy-1,5-naphthyridine-3-carboxyamido)-α-p-aminophenylacetamido]cephalosporanic Acid] | 6.25 (≈ 10.5 µM) | 3.13 (≈ 5.28 µM) | 1.56 (≈ 2.63 µM) | 3.13 (≈ 5.28 µM) | 6.25 (≈ 10.5 µM) | 6.25 (≈ 10.5 µM) | 50 (≈ 84.4 µM) | 0.39 (≈ 0.658 µM) |  |  |  |  |  |  |  |  |
| O=C(O)C1=C(CSc2nnc(CO)s2)CSC2C(NC(=O)C(NC(=O)c3cnccc3O)c3ccc(CO)cc3)C(=O)N12 (stereo not drawn) [Example 110] | 25 (≈ 38.8 µM) | 12.5 (≈ 19.4 µM) | 0.78 (≈ 1.21 µM) | 12.5 (≈ 19.4 µM) | 6.25 (≈ 9.69 µM) | 12.5 (≈ 19.4 µM) | 100 (≈ 155 µM) | 0.39 (≈ 0.605 µM) |  |  |  |  |  |  |  |  |
| CC(=O)OCC1=C(C(=O)O)N2C(=O)C(NC(=O)C(NC(=O)c3cnc4nc(C)ccc4c3O)c3cccc(N)c3)C2SC1 (stereo not drawn) [Example 62] | 25 (≈ 41.2 µM) | 12.5 (≈ 20.6 µM) | 1.56 (≈ 2.57 µM) | 3.13 (≈ 5.16 µM) | 6.25 (≈ 10.3 µM) | 6.25 (≈ 10.3 µM) | 100 (≈ 165 µM) | 0.39 (≈ 0.643 µM) |  |  |  |  |  |  |  |  |
| Cn1nnnc1SCC1=C(C(=O)O)N2C(=O)C(NC(=O)C(NC(=O)c3ccnnc3O)c3cccc(N)c3)C2SC1 (stereo not drawn) [Example 60] | 12.5 (≈ 20.9 µM) | 6.25 (≈ 10.4 µM) | 0.39 (≈ 0.651 µM) | 6.25 (≈ 10.4 µM) | 6.25 (≈ 10.4 µM) | 6.25 (≈ 10.4 µM) | 50 (≈ 83.5 µM) | 0.1 (≈ 0.167 µM) |  |  |  |  |  |  |  |  |
| CSc1ccc2ncc(C(=O)N[C@@H](C(=O)N[C@@H]3C(=O)N4C(C(=O)O)=C(COC(C)=O)CS[C@H]34)c3cccc(NC(N)=O)c3)c(O)c2n1 [Example 34] | 12.5 (≈ 18.3 µM) | 3.13 (≈ 4.59 µM) | 0.78 (≈ 1.14 µM) | 3.13 (≈ 4.59 µM) | 6.25 (≈ 9.17 µM) | 6.25 (≈ 9.17 µM) | 50 (≈ 73.3 µM) | 0.78 (≈ 1.14 µM) |  |  |  |  |  |  |  |  |
| Cn1nnnc1SCC1=C(C(=O)O)N2C(=O)C(NC(=O)C(NC(=O)c3cnccc3O)c3ccc(O)c(Cl)c3)C2SC1 (stereo not drawn) [Example 179] | 12.5 (≈ 19.7 µM) | 6.25 (≈ 9.87 µM) | 0.39 (≈ 0.616 µM) | 6.25 (≈ 9.87 µM) | 6.25 (≈ 9.87 µM) | 12.5 (≈ 19.7 µM) | 50 (≈ 79 µM) | 0.39 (≈ 0.616 µM) |  |  |  |  |  |  |  |  |
